Experimental data taken from patent publication US20220323412A1, “EXTRACELLULAR VESICLE-FENRETINIDE COMPOSITIONS, EXTRACELLULAR VESICLE-C-KIT INHIBITOR COMPOSITIONS, METHODS OF MAKING AND USES THEREOF” (priority 2020, published 2022).

How the values were obtained:
[1] = Retention and biodistribution of fenretinide in eye after intravitreal injection; assay type: in vivo, brown Norway rat; details: 24-hrs after intravitreal 5 μL per eye; 94.8 uM fenretinide-EV or 90.9 uM fenretinide alone
Protocol: Eye biodistribution of fenretinide formulated as 90.9 uM free fenretinide (excipient: 5% Ethanol, 12.5% Solutol-HS 15, 12.5% PEG 300, and 70% PBS) or 94.8 uM fenretinide-EV (in PBS) is administered to each eye of brown Norway rat (6 rats/treatment condition) by intravitreal injection (5 μL per eye). 24-hrs after administration, eyes were enucleated. Individual tissues were collected corresponding to cornea, conjunctiva, lens, vitreous humor, retina, RPE/choroid and sclera and analyzed for fenretinide content. In addition, total fenretinide content in each eye was also determined.

[2] = DrugBank DB05076; cited from earlier work
[3] = test system: MCF-7 breast cancer cells; assay: CellTiter-Glo Luminescent Cell Viability Assay; assay type: cell-based, human
Protocol: EV-fenretinide was packaged in a manner similar to the protocol described in Example 2. EV-fenretinide was dosed onto MCF-7 breast cancer cells using the exemplary protocol below. Cell viability was measured using the Promega CellTiter-Glo® Luminescent Cell Viability Assay—a method of determining the number of viable cells in culture based on quantitation of the ATP present, an indicator of metabolically active cells.
Protocol steps: • 1. MCF-7 cells were cultured in Dulbecco's Modified Eagle's Medium (DMEM) supplemented with 10% exosome-free fetal bovine serum (FBS) supplemented with penicillin-streptomycin-glutamine (PSG; 100 units/mL penicillin, 100 μg/mL streptomycin and 2 mM L-glutamine) for 1-2 passages. • 2. MCF-7 cells were harvested, washed, counted and resuspended in culture medium (DMEM supplemented with 10% exosome-free FBS and PSG) at 5E5 cells/mL. • 3. The MCF-7 cells were seeded at 5E4 cells in a volume of 100 μL/well of culture medium in a white polystyrene 96-well tissue culture plate and incubated for 18-20 hrs at 37° C./5% CO2 humidified incubator. • 4. After 18-20 hrs of incubation, medium was removed from the wells and replaced with culture medium containing test agents. […] The plate was shaken for two minutes and then left to equilibrate for 10 minutes prior to reading the luminescence on a microplate reader (iD3-Molecular Devices).

CD-1 IGS mice = assay: Toxicology: serum and blood chemistry, complete blood count; assay type: in vivo, mouse
Protocol: Both arms were dosed via intravenous tail-vein injected at 0.23 mg/kg with a 4 mL/kg dose volume. The EV-fenretinide formulation was stored at −80° C. until injection into mice. Blood was collected at 2, 5, 10, 15, 30, 60, 120, 240, and 960 minutes, three mice were sacrificed at each time point, and tissue was collected at 30, 120 and 960 minutes. Spleen, liver, lung, kidney, brain and heart tissues were collected. Fenretinide amount in blood and tissue was measured via LC MS/MS mass spectrometry. Serum and hematology toxicology measurements were collected from the blood samples. Blood urea nitrogen (BUN), creatinine, and alanine aminotransferase were measured from serum.
Fenretinide-EVs and fenretinide-alone formulations were produced and dosed in the animal model as in Example 6. On the terminal blood draw of each animal, 20 μL of whole blood samples were used to measure complete blood count (CBC) on the Veterinary Hematology Analyzer (Hematrue, Heska).

[4] = cited from earlier work
[5] = CellTiter-Huor Cell Viability Assay; assay type: cell-based; details: human, ARPE-19 retinal pigment epithelium cells, read-out: cell viability or growth of untreated control
Protocol: EV-fenretinide was packaged and purified in a manner similar to the protocol described in Example 1. The extracellular vesicles used for packaging fenretinide was isolated from HEK293-F cells. A human retinal pigment epithelium (RPE) cell line, ARPE-19 (ATCC® CRL-2302™), isolated from normal eyes of an adult […], is treated with fenretinide alone or fenretinide-EV to examine the effect on viability of retinal pigment epithelium cells. ARPE-19 cells plated the night before were treated with fenretinide (resuspended in 100% DMSO) or fenretinide-EV (in PBS) at matched concentration of drug substance (active pharmaceutical ingredient (API)) dosed at either low (0.94 μM) or high (15 μM) fenretinide concentration. After 48 hrs at 37° C. in a humidified 5% CO2 incubator, cell viability is measured using CellTiter-Huor™ Cell Viability Assay (Promega) following the manufacturer's instructions to detect viable cells based on cell membrane integrity using a fluorogenic, cell-permeant, peptide substrate (Gly-Phe-AFC) which is cleaved to a fluorescent signal following entry into intact cells. The plate was read on plate reader at 380-400 nm excitation and —505 nm emission for live-cell fluorescence readout.

Row | Compound | percentage of fenretinide remaining in eyes [1] [%] | logP [2] | viability at 40 µM ([3]; Homo sapiens, MCF7, MCF-7, 40 μM fenretinide, 48 hours) [%] | effect on cell viability over concentration ([3]; MCF-7, 0.625-40 μM, most notable after about 10 μM) | decrease in PLT (platelet concentration) versus Charles River general levels (CD-1 IGS mice; 16 hrs after intravenous 0.2288 mg/kg) [fold] | adverse effects based on serum and blood chemistry results (CD-1 IGS mice; intravenous 0.23 mg/kg) | solubility limit in water ([4]; water) | viability at 48 h, 0.94 μM ([5]; ARPE-19, 0.94 μM fenretinide equivalent) [%] | viability at 48 h, 15 μM ([5]; ARPE-19, 15 μM fenretinide equivalent) [%] | solubility in water ([4]; Selleck Chem catalog)
1 | CC1=C(/C=C/C(C)=C/C=C/C(C)=C/C(=O)Nc2ccc(O)cc2)C(C)(C)CCC1 [Fenretinide, N[4-hydroxyphenyl]retinamide] | 7 | greater than 6 | ~20 | dose-dependent cell viability inhibition | 5 | did not exert apparent adverse effects | about 1.71 μg/mL | 85.5 | 31 | 
2 | Cc1nc(Nc2ncc(C(=O)Nc3c(C)cccc3Cl)s2)cc(N2CCN(CCO)CC2)n1 [dasatinib] |  |  |  |  |  |  |  |  |  | insoluble in water
